Reference: patent US9408866B2, “Method for detoxification or measurement of at least one compound or at least one fluid in a host body” (NIVA, priority 2012, dated 2016)
Marks after values point to notes of the source that are not given here.

Tests used:
[1] = Contaminant masses in explanted silicone breast prostheses (acetone extraction, GC-MS); format: in vivo, human
Source text: Silicone prostheses were obtained following breast implant surgery during a period spanning from July 2010 to January 2012. Reasons for explanation ranged from severe capsular contracture to a wish for a change in prosthesis size.
Prostheses were collected during surgical explanation from patients and wrapped individually in clean aluminium foil and stored in labelled plastic bags.
As soon as possible after, samples were stored in a freezer. Samples were then transported on ice to the laboratory and stored at −20° C. until analysis. For this proof-of-concept study, 9 prostheses were extracted and analysed. […] Two prostheses were duplicates and their analysis aimed to investigate the reproducibility of the analytical steps as well as of the representativeness of the sampling (samples 2, 6, and 9 in Table 1). All prostheses were made of medical silicone gel enclosed in an outer silicone shell filled with gel with various degree of cohesiveness. Differences between prostheses from various producers include volume, type of silicone material, surface texture and thickness of the outer shell and cohesive degree of the filling gel. Prostheses were tinted and tinting from light yellow to orange appeared (from visual inspection only) dependent on exposure time. […]
Silicone prosthesis extraction were performed in batches of 10-12 samples and included a blank prosthesis (volume of 200-450 cm^3), a spiked prosthesis to assess extraction efficiency and a solvent blank to evaluate potential contamination during extraction and extract clean-up. Extraction of the whole prostheses was undertaken in pre-baked 2 L beakers kept in the dark to prevent photo degradation. Samples were brought to room temperature and the surface was rinsed with ultrapure water and dried with a clean tissue. Connective tissue capsule attached to the surface of prostheses were removed. Samples were extracted by soaking in 1 L of acetone for 24 hours. Acetone was chosen for its low capacity to swell the silicone matrix and because of the ease with which it can volatilise. Recovery standards for organochlorines, PCBs and PBDEs (including for BDE-209) were added to the acetone. It was expected that 24 hours is sufficient for chemicals (present in either phases) to partition between the solvent phase and the silicone prosthesis. The acetone was replaced by another 1 L of acetone and samples were extracted for a further 24 hours. The two volumes of acetone were combined and reduced under a gentle stream of nitrogen. Prostheses were weighed before and after solvent extraction to determine the total amount of silicone oils and other substances removed from the matrix during solvent extraction. A second set of internal standards was used to evaluate possible losses during the sample clean-up step. The solvent was changed to isohexane and sample clean-up consisted of repeated sulphuric acid treatment until no colouring of the extract could be observed. Extract were then passed through a silica-filled solid phase extraction column and eluted with dichloromethane or isohexane. Extracts were reduced to an adequate volume before analysis.
Analytes were separated on a 30 m-long DB-5MS column (0.25 mm i.d. and 0.25 μm film thickness, Agilent JW Scientific, Santa Clara, USA) following 1 μL pulsed splitless injection (pulse pressure 20 psi for 1.2 min, injector temperature of 300° C.). The helium gas flow was set to 1.2 mL min^−1 and the GC oven temperature programme consisted of a step at 60° C. (held for 2 min) before an increase to 250° C. (at the rate 7° C. min^−1) and a final increase to 310° C. (at the rate of 15° C. min^−1) with this temperature held constant for a further 5 min. Ion source, quadrupole and transfer line temperatures were set to 230, 150 and 280° C., respectively. Quantification was performed using the relative response of surrogate internal standards (CB-30, CB-53 and CB-204) and 7-point calibration curves. […]

[2] = mean, Norwegian women (n = 20) age 25-59, Thomsen et al. (2007); cited from earlier work
[3] = POP concentration in lipids estimated from concentrations measured in prostheses; format: in vivo, human; settings: estimated from silicone prosthesis concentrations, silicone density of 1.0 and Klip-sil values
Experimental: The representativeness and suitability of POP concentrations measured in explanted silicone prostheses can be evaluated through comparison with literature data on POP levels measured in breast milk or blood serum from Norwegian women. Using seal oil lipid-to-silicone partition coefficients, Klip-sil for PCBs and DDTs, estimates of POP concentrations in lipids of participants of the present invention were calculated. This approach assumes that the influence of the type of silicone and of lipids on lipid-silicone partition coefficients is minor.

[4] = seal lipids, taken from Jahnke et al. (2008); cited from earlier work
[5] = milk from Norwegian women (n = 70), Thomsen et al. (2011); cited from earlier work
[6] = Sample 2, duplicate explanted prostheses analysed in the same batch

Brc1ccc(Oc2ccc(Br)cc2Br)c(Br)c1 [BDE-47]
Prosthesis contaminant mass, Mean [1, 6]: 1.6 ng sample^−1

Clc1cc(Cl)c(-c2cc(Cl)c(Cl)cc2Cl)cc1Cl [CB-153]
Measured Cserum [2]: 43 ng g^−1 lipid
Estimated Clipid [3]: 62 ng/g
Prosthesis contaminant mass, Mean [1, 6]: 252 ng sample^−1
Klip-sil (lipid-silicone partition coefficient) [4]: 38.1 g/g
Measured Cmilk (median with range in brackets) [5]: 38 (20-68) ng g^−1 lipid

Clc1cc(Cl)c(-c2ccc(Cl)c(Cl)c2Cl)cc1Cl [CB-138]
Measured Cserum [2]: 20 ng g^−1 lipid
Estimated Clipid [3]: 27 ng/g
Prosthesis contaminant mass, Mean [1, 6]: 123 ng sample^−1
Klip-sil (lipid-silicone partition coefficient) [4]: 34.0 g/g
Measured Cmilk (median with range in brackets) [5]: 16 (8-30)^f ng g^−1 lipid

Clc1cc(Cl)c(Cl)c(Cl)c1Cl [PeCB, pentachlorobenzene]
Prosthesis contaminant mass, Mean [1, 6]: 5.6 ng sample^−1

Brc1ccc(Oc2ccc(Br)c(Br)c2)cc1Br [BDE-77]
Prosthesis contaminant mass, Mean [1, 6]: 0.8 ng sample^−1

Clc1ccc(C(c2ccccc2Cl)C(Cl)(Cl)Cl)cc1 (centres unmarked) [o,p′-DDT]
Estimated Clipid [3]: 0.8 ng/g
Klip-sil (lipid-silicone partition coefficient) [4]: 21.3 g/g

Clc1ccc(Cl)c(-c2cc(Cl)ccc2Cl)c1 [CB-52]
Klip-sil (lipid-silicone partition coefficient) [4]: 19.2 g/g

Clc1ccc(Cl)c(-c2cc(Cl)c(Cl)cc2Cl)c1 [CB-101]
Measured Cserum [2]: 5.8 ng g^−1 lipid
Estimated Clipid [3]: 0.5 ng/g
Prosthesis contaminant mass, Mean [1, 6]: 7.6 ng sample^−1
Klip-sil (lipid-silicone partition coefficient) [4]: 26.3 g/g
Measured Cmilk (median with range in brackets) [5]: 6.4 (1.8-36)^f ng g^−1 lipid

Clc1ccc(-c2cc(Cl)c(Cl)c(Cl)c2Cl)cc1Cl [CB-156]
Estimated Clipid [3]: 4.5 ng/g
Prosthesis contaminant mass, Mean [1, 6]: 15 ng sample^−1
Klip-sil (lipid-silicone partition coefficient) [4]: 50.8 g/g
Measured Cmilk (median with range in brackets) [5]: 3.2 (1.5-5.9)^f ng g^−1 lipid

Brc1c(Br)c(Br)c(Oc2c(Br)c(Br)c(Br)c(Br)c2Br)c(Br)c1Br [BDE-209]
Prosthesis contaminant mass, Mean [1, 6]: 6.5 ng sample^−1

Brc1cc(Br)c(Oc2cc(Br)c(Br)cc2Br)cc1Br [BDE-153]
Prosthesis contaminant mass, Mean [1, 6]: 3.7 ng sample^−1

ClC(Cl)=C(c1ccc(Cl)cc1)c1ccc(Cl)cc1 [p,p′-DDE]
Prosthesis contaminant mass, Mean [1, 6]: 543 ng sample^−1

Brc1cc(Br)c(Oc2cc(Br)c(Br)cc2Br)c(Br)c1 [BDE-154]
Prosthesis contaminant mass, Mean [1, 6]: 0.5 ng sample^−1

ClC(Cl)=C(Cl)c1c(Cl)c(Cl)c(Cl)c(Cl)c1Cl [OCS, octachlorostyrene]
Prosthesis contaminant mass, Mean ([1]; human, in vivo): 3.5 ng sample^−1

Brc1ccc(Oc2ccc(Br)cc2Br)cc1 [BDE-28]
Prosthesis contaminant mass, Mean [1, 6]: 0.5 ng sample^−1

Clc1ccc(C(c2ccc(Cl)cc2)C(Cl)(Cl)Cl)cc1 [p,p′-DDT]
Estimated Clipid [3]: 5.7 ng/g
Prosthesis contaminant mass, Mean [1, 6]: 38 ng sample^−1
Klip-sil (lipid-silicone partition coefficient) [4]: 50.7 g/g

Clc1ccc(-c2cc(Cl)c(Cl)cc2Cl)cc1Cl [CB-118]
Measured Cserum [2]: 8.0 ng g^−1 lipid
Estimated Clipid [3]: 7.5 ng/g
Prosthesis contaminant mass, Mean [1, 6]: 52 ng sample^−1
Klip-sil (lipid-silicone partition coefficient) [4]: 35.2 g/g
Measured Cmilk (median with range in brackets) [5]: 9.3 (4.0-15)^f ng g^−1 lipid

Clc1c(Cl)c(Cl)c(Cl)c(Cl)c1Cl [HCB, hexachlorobenzene]
Estimated Clipid [3]: 10.9 ng/g
Prosthesis contaminant mass, Mean [1, 6]: 181 ng sample^−1

Clc1ccc(-c2ccc(Cl)c(Cl)c2Cl)cc1Cl [CB-105]
Estimated Clipid [3]: 1.5 ng/g
Prosthesis contaminant mass, Mean [1, 6]: 11 ng sample^−1
Klip-sil (lipid-silicone partition coefficient) [4]: 35.4 g/g
Measured Cmilk (median with range in brackets) [5]: 1.8 (0.89-3.2)^f ng g^−1 lipid

Clc1cc(Cl)c(-c2cc(Cl)c(Cl)c(Cl)c2Cl)cc1Cl [CB-180]
Measured Cserum [2]: 34 ng g^−1 lipid
Estimated Clipid [3]: 4.2 ng/g
Prosthesis contaminant mass, Mean [1, 6]: 9.3 ng sample^−1
Klip-sil (lipid-silicone partition coefficient) [4]: 49.4 g/g
Measured Cmilk (median with range in brackets) [5]: 17 (8.5-32)^f ng g^−1 lipid
